ChEMBL document CHEMBL1137556, “Synthetic studies of neoclerodane diterpenes from Salvia divinorum: exploration of the 1-position” (Bioorg Med Chem Lett, 2007)

Columns and labels:
[1] = target: Delta-type opioid receptor (Homo sapiens) (UniProt P41143)
Description: Antagonist activity at human cloned delta opioid receptor assessed as inhibition of DPDPE-stimulated [35S]GTPgammaS binding

[2] = target: T1, Kappa-type opioid receptor (Homo sapiens, UniProt P41145)
Description: Antagonist activity at human cloned kappa opioid receptor assessed as inhibition of DAMGO-stimulated [35S]GTP-gamma-S binding

[3] = target: T1, Kappa-type opioid receptor; remark: listed apart in the source
Description: Antagonist activity at human cloned kappa opioid receptor assessed as inhibition of U69,593-stimulated [35S]GTP-gamma-S binding

[4] = target: T1, Kappa-type opioid receptor; assay: Efficacy at human kappa opioid receptor by [35S]GTPgammaS binding assay relative to U69,593; type: functional
[5] = target: T1, Kappa-type opioid receptor; assay: Agonist activity at human kappa opioid receptor by [35S]GTPgammaS binding assay; type: functional
[6] = target: T1, Kappa-type opioid receptor; assay: Agonist activity at human kappa opioid receptor assessed as inhibition of Galpha-16-induced calcium flux; type: functional
[7] = target: T1, Kappa-type opioid receptor; assay: Efficacy at human kappa opioid receptor assessed as inhibition of Galpha-16-induced calcium flux relative to U69,593; type: functional

T1 sequence (P41145 whole entry): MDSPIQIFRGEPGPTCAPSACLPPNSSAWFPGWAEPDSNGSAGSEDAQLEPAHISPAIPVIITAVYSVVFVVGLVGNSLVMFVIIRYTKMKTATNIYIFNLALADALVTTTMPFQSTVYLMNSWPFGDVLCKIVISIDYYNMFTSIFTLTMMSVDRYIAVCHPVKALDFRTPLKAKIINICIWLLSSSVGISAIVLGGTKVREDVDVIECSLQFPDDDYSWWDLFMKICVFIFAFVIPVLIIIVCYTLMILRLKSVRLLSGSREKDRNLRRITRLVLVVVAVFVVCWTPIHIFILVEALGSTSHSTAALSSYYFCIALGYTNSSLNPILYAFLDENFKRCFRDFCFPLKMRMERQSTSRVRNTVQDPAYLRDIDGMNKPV
Sequence of Delta-type opioid receptor (Homo sapiens) (P41143 whole entry): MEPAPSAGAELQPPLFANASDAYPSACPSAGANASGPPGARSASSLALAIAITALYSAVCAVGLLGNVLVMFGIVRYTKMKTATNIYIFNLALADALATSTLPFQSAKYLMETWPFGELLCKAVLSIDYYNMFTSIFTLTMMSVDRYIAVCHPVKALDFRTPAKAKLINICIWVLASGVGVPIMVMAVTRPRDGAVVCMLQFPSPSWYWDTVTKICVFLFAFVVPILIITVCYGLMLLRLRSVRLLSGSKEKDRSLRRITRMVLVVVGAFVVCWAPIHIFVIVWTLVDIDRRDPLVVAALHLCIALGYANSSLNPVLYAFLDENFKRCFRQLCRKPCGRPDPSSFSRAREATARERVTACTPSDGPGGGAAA

Structure (SMILES) | Ke [1] [nM] | Ke [2] [nM] | Ke [3] [nM] | Emax [4] [%] | EC50 [5] [nM] | EC50 [6] [nM] | Emax [7] [%]
COC(=O)[C@@H]1C[C@H](OC(=O)c2ccccc2)C=C2[C@@]1(C)CC[C@H]1C(=O)O[C@H](c3ccoc3)C[C@]21C | 2300 | 1740 | 580 |  |  |  | 
COC(=O)[C@@H]1C[C@H](OC(C)=O)[C@H](OS(C)(=O)=O)[C@H]2[C@@]1(C)CC[C@H]1C(=O)O[C@H](c3ccoc3)C[C@]21C [1-ALPHA-MESYLOXYSALVINORIN A] |  |  |  | 95 | 2700 |  | 
COC(=O)[C@@H]1C[C@H](OC(=O)c2ccccc2)[C@H](O)[C@H]2[C@@]1(C)CC[C@H]1C(=O)O[C@H](c3ccoc3)C[C@]21C | 2900 | 1830 | 1050 |  |  |  | 
COC(=O)[C@@H]1C[C@H](OC(C)=O)C=C2[C@@]1(C)CC[C@H]1C(=O)O[C@H](c3ccoc3)C[C@]21C | 400 | 200 | 570 |  |  |  | 
COC(=O)[C@@H]1C[C@H](OC(C)=O)[C@H](O)[C@H]2[C@@]1(C)CC[C@H]1C(=O)O[C@H](c3ccoc3)C[C@]21C | 1790 | 2300 | 240 |  |  |  | 
COC(=O)[C@@H]1C[C@H](OC(=O)c2ccccc2)C[C@H]2[C@@]1(C)CC[C@H]1C(=O)O[C@H](c3ccoc3)C[C@]21C | 8780 | 4700 | 580 |  |  |  | 
COC(=O)[C@@H]1C[C@H](OC(C)=O)C[C@H]2[C@@]1(C)CC[C@H]1C(=O)O[C@H](c3ccoc3)C[C@]21C | 100 | 170 |  | 49 | 280 | 3.34 | 93
COC(=O)[C@@H]1CC(=O)C=C2[C@@]1(C)CC[C@H]1C(=O)O[C@H](c3ccoc3)C[C@]21C | 3500 | 700 | 460 |  |  |  | 
